{
  "source": "ChEMBL document CHEMBL1944503",
  "about": "“Synthesis and biological evaluation of conjugates of deoxypodophyllotoxin and 5-FU as inducer of caspase-3 and -7” (Eur J Med Chem, 2012)",
  "key": {"HeLa": {"system": "HeLa", "assay": "Cytotoxicity against human HeLa cells after 48 hrs by CCK-8 assay", "format": "functional, cell-based"}, "HL-60": {"system": "HL-60", "assay": "Cytotoxicity against human HL60 cells after 48 hrs by CCK-8 assay", "format": "functional, cell-based", "conditions": "HL-60, 48 h"}, "SiHa": {"system": "SiHa", "assay": "Cytotoxicity against human SiHa cells after 48 hrs by MTT assay", "format": "functional, cell-based"}, "A549 [1]": {"system": "A549", "assay": "cells", "conditions": "Homo sapiens, A549, 48 h", "description": "Cytotoxicity against human A549 cells after 48 hrs by MTT assay"}, "A549 [2]": {"system": "A549", "assay": "Induction of apoptosis in human A549 cells assessed as cell shrinkage at 0.5 uM after 24 hrs by Hoechst 33258 staining based fluorescence microscopy", "format": "functional"}, "A549 [3]": {"system": "A549", "assay": "Induction of apoptosis in human A549 cells assessed as cell detachment at 0.5 uM after 24 hrs by Hoechst 33258 staining based fluorescence microscopy", "format": "functional"}, "A549 [4]": {"system": "A549", "assay": "Induction of apoptosis in human A549 cells assessed as nuclear fragmentation at 0.5 uM after 24 hrs by Hoechst 33258 staining based fluorescence microscopy", "format": "functional, cell-based"}, "A549 [5]": {"system": "A549", "assay": "Induction of apoptosis in human A549 cells assessed as nuclear condensation at 0.5 uM after 24 hrs by Hoechst 33258 staining based fluorescence microscopy", "format": "functional, cell-based"}, "A549 [6]": {"system": "A549", "assay": "Induction of apoptosis in human A549 cells assessed as membrane blebbing at 0.5 uM after 24 hrs by Hoechst 33258 staining based fluorescence microscopy", "format": "functional, cell-based"}, "A549 [7]": {"system": "A549", "assay": "Cell cycle arrest in human A549 cells assessed as accumulation at G1 phase at 0.5 uM after 24 hrs by propidium iodide staining based flow cytometry analysis (reference value: 54.1%)", "format": "functional"}, "A549 [8]": {"system": "A549", "assay": "Cell cycle arrest in human A549 cells assessed as accumulation at G2/M phase at 0.5 uM after 12 hrs by propidium iodide staining based flow cytometry analysis (reference value: 15.6%)", "format": "functional"}, "A549 [9]": {"system": "A549", "assay": "Cell cycle arrest in human A549 cells assessed as accumulation at G2/M phase at 0.5 uM by propidium iodide staining based flow cytometry analysis", "format": "functional", "conditions": "TDE = time-dependent effect"}, "A549 [10]": {"system": "A549", "assay": "Cell cycle arrest in human A549 cells assessed as accumulation at G2/M phase at 0.5 uM after 24 hrs by propidium iodide staining based flow cytometry analysis (reference value: 15.6%)", "format": "functional"}, "A549 [11]": {"system": "A549", "assay": "Cell cycle arrest in human A549 cells assessed as accumulation at S phase at 0.5 uM after 12 hrs by propidium iodide staining based flow cytometry analysis (reference value: 30.3%)", "format": "functional"}, "A549 [12]": {"system": "A549", "assay": "Cell cycle arrest in human A549 cells assessed as accumulation at G1 phase at 0.5 uM after 12 hrs by propidium iodide staining based flow cytometry analysis (reference value: 54.1%)", "format": "functional"}, "A549 [13]": {"system": "A549", "assay": "Cell cycle arrest in human A549 cells assessed as accumulation at G1 phase at 0.5 uM by propidium iodide staining based flow cytometry analysis", "format": "functional", "conditions": "TDE = time-dependent effect"}, "A549 [14]": {"system": "A549", "assay": "Induction of apoptosis in human A549 cells assessed as increase in caspase-3 cleavage at 0.5 uM by Western blot analysis", "format": "functional, cell-based", "conditions": "TDE = time-dependent effect"}, "A549 [15]": {"system": "A549", "assay": "Cell cycle arrest in human A549 cells assessed as accumulation at S phase at 0.5 uM after 24 hrs by propidium iodide staining based flow cytometry analysis (reference value: 30.3%)", "format": "functional"}, "A549 [16]": {"system": "A549", "assay": "Induction of apoptosis in human A549 cells assessed as increase in caspase-7 cleavage at 0.5 uM by Western blot analysis", "format": "functional, cell-based", "conditions": "TDE = time-dependent effect"}},
  "note": "Activity calls are given as the source filed them. No cut-off for these calls is given here.",
  "data": [
    {"smiles": "COc1cc([C@@H]2c3cc4c(cc3C[C@H]3COC(=O)[C@@H]32)OCO4)cc(OC)c1OC(=O)[C@H](C)NC(=O)Cn1cc(F)c(=O)[nH]c1=O", "values": [
      {"measurement": "IC50", "setting": "HeLa", "value": 200, "unit": "nM"},
      {"measurement": "IC50", "setting": "HL-60", "value": 190, "unit": "nM"},
      {"measurement": "IC50", "setting": "SiHa", "value": 600, "unit": "nM"},
      {"measurement": "IC50", "setting": "A549 [1]", "value": 1400, "unit": "nM"}
    ]},
    {"smiles": "COc1cc([C@@H]2c3cc4c(cc3C[C@H]3COC(=O)[C@@H]32)OCO4)cc(OC)c1O", "note": "[4'-DEMETHYLDEOXYPODOPHYLLOTOXIN]", "values": [
      {"measurement": "IC50", "setting": "HeLa", "value": 53300, "unit": "nM"},
      {"measurement": "IC50", "setting": "SiHa", "value": 43000, "unit": "nM"}
    ]},
    {"smiles": "COc1cc([C@@H]2c3cc4c(cc3C[C@H]3COC(=O)[C@@H]32)OCO4)cc(OC)c1OC(=O)[C@@H](CCSC)NC(=O)Cn1cc(F)c(=O)[nH]c1=O", "values": [
      {"measurement": "IC50", "setting": "HeLa", "value": 1970, "unit": "nM"},
      {"measurement": "IC50", "setting": "HL-60", "value": 940, "unit": "nM"},
      {"measurement": "IC50", "setting": "SiHa", "value": 1510, "unit": "nM"},
      {"measurement": "IC50", "setting": "A549 [1]", "value": 2600, "unit": "nM"}
    ]},
    {"smiles": "O=c1[nH]cc(F)c(=O)[nH]1", "note": "[FLUOROURACIL]", "values": [
      {"measurement": "IC50", "setting": "HeLa", "value": 82200, "unit": "nM"},
      {"measurement": "IC50", "setting": "HL-60", "value": 68300, "unit": "nM"},
      {"measurement": "IC50", "setting": "SiHa", "value": 218000, "unit": "nM"},
      {"measurement": "IC50", "setting": "A549 [1]", "value": 54800, "unit": "nM"}
    ]},
    {"smiles": "COc1cc([C@@H]2c3cc4c(cc3[C@H](O)[C@H]3COC(=O)[C@H]23)OCO4)cc(OC)c1OC", "values": [
      {"measurement": "Activity", "setting": "A549 [2]", "value": "Active"},
      {"measurement": "Activity", "setting": "A549 [3]", "value": "Active"},
      {"measurement": "Activity", "setting": "A549 [4]", "value": "Active"},
      {"measurement": "Activity", "setting": "A549 [5]", "value": "Active"},
      {"measurement": "Activity", "setting": "A549 [6]", "value": "Active"}
    ]},
    {"smiles": "COc1cc([C@@H]2c3cc4c(cc3C[C@H]3COC(=O)[C@@H]32)OCO4)cc(OC)c1OC(=O)[C@H](CC(C)C)NC(=O)Cn1cc(F)c(=O)[nH]c1=O", "values": [
      {"measurement": "IC50", "setting": "HeLa", "value": 430, "unit": "nM"},
      {"measurement": "IC50", "setting": "HL-60", "value": 63, "unit": "nM"},
      {"measurement": "IC50", "setting": "SiHa", "value": 350, "unit": "nM"},
      {"measurement": "IC50", "setting": "A549 [1]", "value": 1070, "unit": "nM"}
    ]},
    {"smiles": "COc1cc([C@@H]2c3cc4c(cc3C[C@H]3COC(=O)[C@@H]32)OCO4)cc(OC)c1OC(=O)[C@H](Cc1ccccc1)NC(=O)Cn1cc(F)c(=O)[nH]c1=O", "values": [
      {"measurement": "IC50", "setting": "HeLa", "value": 830, "unit": "nM"},
      {"measurement": "Activity", "setting": "A549 [2]", "value": "Active"},
      {"measurement": "IC50", "setting": "HL-60", "value": 23, "unit": "nM"},
      {"measurement": "Activity", "setting": "A549 [7]", "value": 3.94, "unit": "%"},
      {"measurement": "Activity", "setting": "A549 [8]", "value": 52.6, "unit": "%"},
      {"measurement": "Activity", "setting": "A549 [9]", "value": "tde"},
      {"measurement": "Activity", "setting": "A549 [10]", "value": 64.8, "unit": "%"},
      {"measurement": "IC50", "setting": "SiHa", "value": 760, "unit": "nM"},
      {"measurement": "Activity", "setting": "A549 [11]", "value": 42.6, "unit": "%"},
      {"measurement": "Activity", "setting": "A549 [12]", "value": 4.84, "unit": "%"},
      {"measurement": "Activity", "setting": "A549 [3]", "value": "Active"},
      {"measurement": "Activity", "setting": "A549 [13]", "value": "tde"},
      {"measurement": "IC50", "setting": "A549 [1]", "value": 560, "unit": "nM"},
      {"measurement": "Activity", "setting": "A549 [4]", "value": "Active"},
      {"measurement": "Activity", "setting": "A549 [14]", "value": "tde"},
      {"measurement": "Activity", "setting": "A549 [15]", "value": 31.3, "unit": "%"},
      {"measurement": "Activity", "setting": "A549 [5]", "value": "Active"},
      {"measurement": "Activity", "setting": "A549 [16]", "value": "tde"},
      {"measurement": "Activity", "setting": "A549 [6]", "value": "Active"}
    ]},
    {"smiles": "COc1cc([C@@H]2c3cc4c(cc3[C@@H](O[C@@H]3O[C@@H]5CO[C@@H](C)O[C@H]5[C@H](O)[C@H]3O)[C@H]3COC(=O)[C@H]23)OCO4)cc(OC)c1O", "note": "[ETOPOSIDE]", "values": [
      {"measurement": "IC50", "setting": "HeLa", "value": 40400, "unit": "nM"},
      {"measurement": "IC50", "setting": "SiHa", "value": 2760, "unit": "nM"}
    ]},
    {"smiles": "COc1cc([C@@H]2c3cc4c(cc3C[C@H]3COC(=O)[C@@H]32)OCO4)cc(OC)c1OC(=O)[C@H](CCSC)NC(=O)Cn1cc(F)c(=O)[nH]c1=O", "values": [
      {"measurement": "IC50", "setting": "HeLa", "value": 780, "unit": "nM"},
      {"measurement": "IC50", "setting": "HL-60", "value": 230, "unit": "nM"},
      {"measurement": "IC50", "setting": "SiHa", "value": 360, "unit": "nM"},
      {"measurement": "IC50", "setting": "A549 [1]", "value": 830, "unit": "nM"}
    ]},
    {"smiles": "COc1cc([C@@H]2c3cc4c(cc3C[C@H]3COC(=O)[C@@H]32)OCO4)cc(OC)c1OC(=O)[C@@H](NC(=O)Cn1cc(F)c(=O)[nH]c1=O)C(C)C", "values": [
      {"measurement": "IC50", "setting": "HeLa", "value": 1230, "unit": "nM"},
      {"measurement": "IC50", "setting": "HL-60", "value": 140, "unit": "nM"},
      {"measurement": "IC50", "setting": "SiHa", "value": 1650, "unit": "nM"},
      {"measurement": "IC50", "setting": "A549 [1]", "value": 360, "unit": "nM"}
    ]},
    {"smiles": "COc1cc([C@@H]2c3cc4c(cc3C[C@H]3COC(=O)[C@@H]32)OCO4)cc(OC)c1OC", "note": "[DESOXYPODOPHYLLOTOXIN]", "values": [
      {"measurement": "IC50", "setting": "HeLa", "value": 6010, "unit": "nM"},
      {"measurement": "IC50", "setting": "SiHa", "value": 1980, "unit": "nM"}
    ]},
    {"smiles": "COc1cc([C@@H]2c3cc4c(cc3C[C@H]3COC(=O)[C@@H]32)OCO4)cc(OC)c1OC(=O)Cn1cc(F)c(=O)[nH]c1=O", "values": [
      {"measurement": "IC50", "setting": "HeLa", "value": 180, "unit": "nM"},
      {"measurement": "IC50", "setting": "HL-60", "value": 35, "unit": "nM"},
      {"measurement": "IC50", "setting": "SiHa", "value": 110, "unit": "nM"},
      {"measurement": "IC50", "setting": "A549 [1]", "value": 660, "unit": "nM"}
    ]}
  ]
}
